# Data reported in article PMC5218480 (PLoS ONE, 2017).
# Test system: MV-4-11 cells
# Assay: Gene expression microarray analysis (Affymetrix PrimeView) and GSEA
# Type: cell-based, human
# Parameters: RFU PODN (11730768_x_at) / Fold change /veh PODN (11730768_x_at) / RFU LINC00158 (11744669_a_at) / Fold change /veh LINC00158 (11744669_a_at) / RFU DUSP10 (11751237_a_at) / Fold change /veh DUSP10 (11751237_a_at) / RFU ID3 (11757404_x_at) / Fold change /veh ID3 (11757404_x_at) / RFU PLEKHG5 (11737974_s_at) / Fold change /veh PLEKHG5 (11737974_s_at) / RFU LRRC4B (11730491_at) / Fold change /veh LRRC4B (11730491_at) / RFU GIMAP4 (11747438_a_at) / Fold change /veh GIMAP4 (11747438_a_at) / RFU KRT8 (11758183_x_at) / Fold change /veh KRT8 (11758183_x_at) / RFU CNN1 (11734310_a_at) / Fold change /veh CNN1 (11734310_a_at) / RFU VPS37D (11726825_at) / Fold change /veh VPS37D (11726825_at) / RFU C10orf10 (11716522_x_at) / Fold change /veh C10orf10 (11716522_x_at) / RFU KIR2DL2 /// KIR2DL4 /// KIR2DL5A /// KIR2DL5B /// KIR2DS1 /// KIR2DS2 /// KIR2DS3 /// KIR2DS4 /// KIR3DL3 /// KIR3DL3 /// KIR3DS1 (11738374_at) / Fold change /veh KIR2DL2 /// KIR2DL4 /// KIR2DL5A /// KIR2DL5B /// KIR2DS1 /// KIR2DS2 /// KIR2DS3 /// KIR2DS4 /// KIR3DL3 /// KIR3DL3 /// KIR3DS1 (11738374_at) / RFU C1QL1 (11718748_at) / Fold change /veh C1QL1 (11718748_at) / RFU TMPRSS4 (11747572_a_at) / Fold change /veh TMPRSS4 (11747572_a_at) / RFU HAMP (11756126_x_at) / Fold change /veh HAMP (11756126_x_at) / RFU RNFT2 (11725882_a_at) / Fold change /veh RNFT2 (11725882_a_at) / RFU NR4A2 (11747474_a_at) / Fold change /veh NR4A2 (11747474_a_at) / RFU ABCC12 (11746883_a_at) / Fold change /veh ABCC12 (11746883_a_at) / RFU TMEM136 (11760407_x_at) / Fold change /veh TMEM136 (11760407_x_at) / RFU CLDN22 /// WWC2 (11732394_at) / Fold change /veh CLDN22 /// WWC2 (11732394_at) / RFU HLA-DPB1 (11760878_x_at) / Fold change /veh HLA-DPB1 (11760878_x_at) / RFU SPINT1 (11716480_a_at) / Fold change /veh SPINT1 (11716480_a_at) / RFU GAP43 (11754022_s_at) / Fold change /veh GAP43 (11754022_s_at) / RFU A4GNT (11735810_at) / Fold change /veh A4GNT (11735810_at) / RFU PRB3 (11715151_x_at) / Fold change /veh PRB3 (11715151_x_at) / RFU TUBB4B (11761932_at) / Fold change /veh TUBB4B (11761932_at) / RFU CAPN14 (11732068_a_at) / Fold change /veh CAPN14 (11732068_a_at) / RFU TMCC2 (11721928_a_at) / Fold change /veh TMCC2 (11721928_a_at) / RFU IRGQ (11745062_a_at) / Fold change /veh IRGQ (11745062_a_at) / RFU FAM174B (11720279_a_at) / Fold change /veh FAM174B (11720279_a_at) / RFU TMPRSS4 (11748680_a_at) / Fold change /veh TMPRSS4 (11748680_a_at) / RFU FAM212B (11763350_a_at) / Fold change /veh FAM212B (11763350_a_at) / RFU PLEKHG5 (11743358_a_at) / Fold change /veh PLEKHG5 (11743358_a_at) / RFU ZSCAN30 (11745921_a_at) / Fold change /veh ZSCAN30 (11745921_a_at) / RFU CMKLR1 (11741424_a_at) / Fold change /veh CMKLR1 (11741424_a_at) / RFU LOC101060620 /// MAPK8IP1 (11723275_at) / Fold change /veh LOC101060620 /// MAPK8IP1 (11723275_at) / RFU SPTSSB (11747773_x_at) / Fold change /veh SPTSSB (11747773_x_at) / RFU PRSS12 (11739890_at) / Fold change /veh PRSS12 (11739890_at) / RFU BIN1 (11741810_x_at) / Fold change /veh BIN1 (11741810_x_at) / RFU WNT11 (11732464_a_at) / Fold change /veh WNT11 (11732464_a_at) / RFU C10orf10 (11716521_a_at) / Fold change /veh C10orf10 (11716521_a_at) / RFU C5orf56 (11738089_at) / Fold change /veh C5orf56 (11738089_at) / RFU CYB561 (11721691_x_at) / Fold change /veh CYB561 (11721691_x_at) / RFU ANKRD19P (11752326_a_at) / Fold change /veh ANKRD19P (11752326_a_at) / RFU OR2T12 /// OR2T33 /// OR2T8 (11738714_s_at) / Fold change /veh OR2T12 /// OR2T33 /// OR2T8 (11738714_s_at) / RFU VCAN (11748164_a_at) / Fold change /veh VCAN (11748164_a_at) / RFU JSRP1 (11732532_at) / Fold change /veh JSRP1 (11732532_at) / RFU KRTAP10-11 (11738290_x_at) / Fold change /veh KRTAP10-11 (11738290_x_at) / RFU MYO3A (11730013_a_at) / Fold change /veh MYO3A (11730013_a_at) / RFU EBF3 (11725865_a_at) / Fold change /veh EBF3 (11725865_a_at) / RFU CAMK2N1 (11719241_x_at) / Fold change /veh CAMK2N1 (11719241_x_at) / RFU C5orf56 (11738088_a_at) / Fold change /veh C5orf56 (11738088_a_at) / RFU OLFML3 (11715873_a_at) / Fold change /veh OLFML3 (11715873_a_at) / RFU LOC100653217 /// NTM (11731650_a_at) / Fold change /veh LOC100653217 /// NTM (11731650_a_at) / RFU MAPK11 (11762145_a_at) / Fold change /veh MAPK11 (11762145_a_at) / RFU FIZ1 (11724087_x_at) / Fold change /veh FIZ1 (11724087_x_at) / RFU OASL (11726364_x_at) / Fold change /veh OASL (11726364_x_at) / RFU SOX15 (11748057_x_at) / Fold change /veh SOX15 (11748057_x_at) / RFU CD79A (11719716_a_at) / Fold change /veh CD79A (11719716_a_at) / RFU HIST1H1D (11736915_at) / Fold change /veh HIST1H1D (11736915_at) / RFU CASKIN2 (11723855_a_at) / Fold change /veh CASKIN2 (11723855_a_at) / RFU LOC730098 (11760151_x_at) / Fold change /veh LOC730098 (11760151_x_at) / RFU OR4N2 (11742367_at) / Fold change /veh OR4N2 (11742367_at) / RFU PRRT2 (11749266_a_at) / Fold change /veh PRRT2 (11749266_a_at) / RFU SNX32 (11753110_a_at) / Fold change /veh SNX32 (11753110_a_at) / RFU CDHR5 (11726645_a_at) / Fold change /veh CDHR5 (11726645_a_at) / RFU RCAN1 (11760418_a_at) / Fold change /veh RCAN1 (11760418_a_at) / RFU FAM167A (11723789_a_at) / Fold change /veh FAM167A (11723789_a_at) / RFU FAM26E (11764081_at) / Fold change /veh FAM26E (11764081_at) / RFU ISYNA1 (11749810_s_at) / Fold change /veh ISYNA1 (11749810_s_at) / RFU ACY1 (11761880_at) / Fold change /veh ACY1 (11761880_at) / RFU 11764098_at / Fold change /veh 11764098_at / RFU SAMD14 (11745864_x_at) / Fold change /veh SAMD14 (11745864_x_at) / RFU NPB (11741838_a_at) / Fold change /veh NPB (11741838_a_at) / RFU TMPRSS6 (11731388_a_at) / Fold change /veh TMPRSS6 (11731388_a_at) / RFU KRTAP10-2 (11738614_at) / Fold change /veh KRTAP10-2 (11738614_at) / RFU ARHGAP8 /// PRR5-ARHGAP8 (11727945_x_at) / Fold change /veh ARHGAP8 /// PRR5-ARHGAP8 (11727945_x_at) / RFU KRTAP5-7 /// NADSYN1 (11734609_at) / Fold change /veh KRTAP5-7 /// NADSYN1 (11734609_at) / RFU RASL12 (11751679_a_at) / Fold change /veh RASL12 (11751679_a_at) / RFU CDKN2B (11736163_a_at) / Fold change /veh CDKN2B (11736163_a_at) / RFU PRF1 (11729649_at) / Fold change /veh PRF1 (11729649_at) / RFU, ZNF638 /// ZNF638-IT1 / Fold change vs veh, ZNF638 /// ZNF638-IT1 / RFU, PANK3 / Fold change vs veh, PANK3 / RFU, SH3YL1 / Fold change vs veh, SH3YL1 / RFU, ZEB2 / Fold change vs veh, ZEB2 / RFU, NRIP1 / Fold change vs veh, NRIP1 / RFU, PTTG1IP / Fold change vs veh, PTTG1IP / RFU, CAPN2 / Fold change vs veh, CAPN2 / RFU, MED14 / Fold change vs veh, MED14 / RFU, SNORA58 / Fold change vs veh, SNORA58 / RFU, C1orf63 / Fold change vs veh, C1orf63 / RFU, LRRFIP1 / Fold change vs veh, LRRFIP1 / RFU, NDUFAF7 / Fold change vs veh, NDUFAF7 / RFU, SLC12A2 / Fold change vs veh, SLC12A2 / RFU, IBTK / Fold change vs veh, IBTK / RFU, ESF1 / Fold change vs veh, ESF1 / Fold change vs veh, TMEM50B / RFU, TAOK1 / Fold change vs veh, TAOK1 / RFU, ACBD3 / Fold change vs veh, ACBD3 / RFU, TMA16 / Fold change vs veh, TMA16 / RFU, RWDD3 / Fold change vs veh, RWDD3 / RFU, BCAT1 / Fold change vs veh, BCAT1 / RFU, EDEM3 / Fold change vs veh, EDEM3 / RFU, TMEM33 / Fold change vs veh, TMEM33 / RFU, WDR75 / Fold change vs veh, WDR75 / RFU, AHCTF1 / Fold change vs veh, AHCTF1 / RFU, TFRC / Fold change vs veh, TFRC / RFU, ZDHHC17 / Fold change vs veh, ZDHHC17 / RFU, NOM1 / Fold change vs veh, NOM1 / RFU, ARL8B / Fold change vs veh, ARL8B / RFU, ZBTB11 / Fold change vs veh, ZBTB11 / RFU, TAMM41 / Fold change vs veh, TAMM41 / RFU, KIAA1704 /// LOC100996395 / Fold change vs veh, KIAA1704 /// LOC100996395 / RFU, ING1 / Fold change vs veh, ING1 / RFU, TRMT61B / Fold change vs veh, TRMT61B / RFU, FUBP3 / Fold change vs veh, FUBP3 / RFU, TP53 / Fold change vs veh, TP53 / RFU, TNKS2 / Fold change vs veh, TNKS2 / RFU, ZFP14 / Fold change vs veh, ZFP14 / RFU, ACTR2 / Fold change vs veh, ACTR2 / RFU, PPP3R1 / Fold change vs veh, PPP3R1 / RFU, PIK3R1 / Fold change vs veh, PIK3R1 / RFU, HNRNPA1 / Fold change vs veh, HNRNPA1 / RFU, RNF170 / Fold change vs veh, RNF170 / RFU, ZNF28 / Fold change vs veh, ZNF28 / RFU, RNGTT / Fold change vs veh, RNGTT / RFU, OGT / Fold change vs veh, OGT / RFU, BRD1 / Fold change vs veh, BRD1 / RFU, MARS / Fold change vs veh, MARS / RFU, ZNF655 / Fold change vs veh, ZNF655 / RFU, FAHD1 / Fold change vs veh, FAHD1 / RFU, BDP1 / Fold change vs veh, BDP1 / RFU, LRRCC1 / Fold change vs veh, LRRCC1 / RFU, ARID1A / Fold change vs veh, ARID1A / RFU, ZNF146 / Fold change vs veh, ZNF146 / RFU, ZNF330 / Fold change vs veh, ZNF330 / RFU, GPN3 / Fold change vs veh, GPN3 / RFU, C9orf123 / Fold change vs veh, C9orf123 / RFU, N4BP2L2 / Fold change vs veh, N4BP2L2 / RFU, ARFIP1 / Fold change vs veh, ARFIP1 / RFU, FAM179B / Fold change vs veh, FAM179B / RFU, BCL10 / Fold change vs veh, BCL10 / RFU, UHRF1BP1L / Fold change vs veh, UHRF1BP1L / RFU, BET1 / Fold change vs veh, BET1 / RFU, CNOT2 / Fold change vs veh, CNOT2 / RFU, ZNF268 / Fold change vs veh, ZNF268 / Fold change vs veh, ZNF507 / RFU, DGCR2 / Fold change vs veh, DGCR2 / RFU, WDSUB1 / Fold change vs veh, WDSUB1 / Fold change vs veh, HSP90B1 /// MIR3652 / RFU, ADSS / Fold change vs veh, ADSS / RFU, GK / Fold change vs veh, GK / RFU, ZNF148 / Fold change vs veh, ZNF148 / RFU, TAF9 / Fold change vs veh, TAF9 / RFU, SLC1A5 / Fold change vs veh, SLC1A5 / RFU, SLMO2 / Fold change vs veh, SLMO2 / RFU, ABCC4 / Fold change vs veh, ABCC4 / RFU, LOC101060439 /// RAP1B / Fold change vs veh, LOC101060439 /// RAP1B / RFU, RFX7 / Fold change vs veh, RFX7 / RFU, GTPBP10 / Fold change vs veh, GTPBP10 / RFU, CNEP1R1 / Fold change vs veh, CNEP1R1 / RFU, BIVM-ERCC5 /// ERCC5 / Fold change vs veh, BIVM-ERCC5 /// ERCC5 / RFU, ILF3 / Fold change vs veh, ILF3 / RFU 11762660_at / Fold change /veh 11762660_at / RFU VCAN (11757783_s_at) / Fold change /veh VCAN (11757783_s_at) / RFU DDX43 (11728927_at) / Fold change /veh DDX43 (11728927_at) / RFU KRT8 (11758188_x_at) / Fold change /veh KRT8 (11758188_x_at) / RFU NKD1 (11759106_at) / Fold change /veh NKD1 (11759106_at) / RFU SRD5A1 (11742802_a_at) / Fold change /veh SRD5A1 (11742802_a_at) / RFU TPSAB1 /// TPSB2 (11721975_s_at) / Fold change /veh TPSAB1 /// TPSB2 (11721975_s_at) / RFU GSTM3 (11746129_a_at) / Fold change /veh GSTM3 (11746129_a_at) / RFU IL23R (11737362_x_at) / Fold change /veh IL23R (11737362_x_at) / RFU TMEM51 (11727254_a_at) / Fold change /veh TMEM51 (11727254_a_at) / RFU PIWIL2 (11732686_x_at) / Fold change /veh PIWIL2 (11732686_x_at) / RFU ORM1 (11744905_x_at) / Fold change /veh ORM1 (11744905_x_at) / RFU CCDC152 (11743942_at) / Fold change /veh CCDC152 (11743942_at) / RFU ECM1 (11717891_a_at) / Fold change /veh ECM1 (11717891_a_at) / RFU IL23R (11748794_a_at) / Fold change /veh IL23R (11748794_a_at) / RFU TNFAIP8L3 (11732012_x_at) / Fold change /veh TNFAIP8L3 (11732012_x_at) / RFU MBOAT4 (11741988_at) / Fold change /veh MBOAT4 (11741988_at) / RFU 11764193_at / Fold change /veh 11764193_at / RFU TMEM53 (11763286_at) / Fold change /veh TMEM53 (11763286_at) / RFU MAGEB2 (11727129_at) / Fold change /veh MAGEB2 (11727129_at) / RFU TMEM200A (11744735_a_at) / Fold change /veh TMEM200A (11744735_a_at) / RFU CCDC152 (11751479_a_at) / Fold change /veh CCDC152 (11751479_a_at) / RFU FAM211A (11726209_a_at) / Fold change /veh FAM211A (11726209_a_at) / RFU RGS16 (11746705_a_at) / Fold change /veh RGS16 (11746705_a_at) / RFU VCAN (11755009_s_at) / Fold change /veh VCAN (11755009_s_at) / RFU RHOB (11743442_s_at) / Fold change /veh RHOB (11743442_s_at) / RFU RGS16 (11720943_a_at) / Fold change /veh RGS16 (11720943_a_at) / RFU RGS16 (11720944_at) / Fold change /veh RGS16 (11720944_at) / RFU, VPS4B / Fold change vs veh, VPS4B / RFU, CREB1 / Fold change vs veh, CREB1 / RFU, DNAJC13 / Fold change vs veh, DNAJC13 / RFU, GNAQ / Fold change vs veh, GNAQ / RFU, CDK5R1 / Fold change vs veh, CDK5R1 / RFU, ZRANB3 / Fold change vs veh, ZRANB3 / RFU, CUL4A / Fold change vs veh, CUL4A / RFU, CCNY / Fold change vs veh, CCNY / RFU, UFL1 / Fold change vs veh, UFL1 / RFU, COG3 / Fold change vs veh, COG3 / RFU, DIAPH2 / Fold change vs veh, DIAPH2 / RFU, SKA2 / Fold change vs veh, SKA2 / RFU, AFF3 / Fold change vs veh, AFF3 / RFU, LMF1 / Fold change vs veh, LMF1 / RFU, IPO11 / Fold change vs veh, IPO11 / RFU, DFFB / Fold change vs veh, DFFB / RFU, FOXP1 / Fold change vs veh, FOXP1 / RFU, CARD8 / Fold change vs veh, CARD8 / RFU, STRN3 / Fold change vs veh, STRN3 / RFU, ADK / Fold change vs veh, ADK / RFU, RASSF2 / Fold change vs veh, RASSF2 / RFU, WIPF1 / Fold change vs veh, WIPF1 / RFU, LARP1B / Fold change vs veh, LARP1B / RFU, RASA1 / Fold change vs veh, RASA1 / RFU, RB1 / Fold change vs veh, RB1 / RFU, PPFIA1 / Fold change vs veh, PPFIA1 / RFU, MAT2A / Fold change vs veh, MAT2A / RFU, CCT5 / Fold change vs veh, CCT5 / RFU, WDR92 / Fold change vs veh, WDR92 / RFU, CUX1 / Fold change vs veh, CUX1 / RFU, TTC7A / Fold change vs veh, TTC7A / RFU, TMEM135 / Fold change vs veh, TMEM135 / RFU, DEPTOR / Fold change vs veh, DEPTOR / RFU, CPM / Fold change vs veh, CPM / RFU, DNAJB6 / Fold change vs veh, DNAJB6 / RFU, CACNA2D3 / Fold change vs veh, CACNA2D3 / RFU, DTX4 / Fold change vs veh, DTX4 / RFU, TFCP2 / Fold change vs veh, TFCP2 / RFU, GMCL1 /// GMCL1P1 / Fold change vs veh, GMCL1 /// GMCL1P1 / RFU, AEBP2 / Fold change vs veh, AEBP2 / RFU, SNHG1 /// SNORD22 /// SNORD25 /// SNORD26 /// SNORD27 /// SNORD28 /// SNORD29 /// SNORD31 / Fold change vs veh, SNHG1 /// SNORD22 /// SNORD25 /// SNORD26 /// SNORD27 /// SNORD28 /// SNORD29 /// SNORD31 / Fold change (Aza/veh), C12orf56 (ProbeSet 11735607_a_at) / Fold change (ACY-1035/veh), C12orf56 (ProbeSet 11735607_a_at) / Fold change (Aza/veh), FGFR1OP (ProbeSet 11751329_s_at) / Fold change (ACY-1035/veh), FGFR1OP (ProbeSet 11751329_s_at) / Fold change (Aza/veh), VPS36 (ProbeSet 11739960_a_at) / Fold change (ACY-1035/veh), VPS36 (ProbeSet 11739960_a_at) / RFU SYPL1 (11715823_x_at) / Fold change /veh SYPL1 (11715823_x_at) / RFU IGFBP7 (11715501_s_at) / Fold change /veh IGFBP7 (11715501_s_at) / RFU REEP3 (11722064_at) / Fold change /veh REEP3 (11722064_at) / RFU IGLL1 (11728026_x_at) / Fold change /veh IGLL1 (11728026_x_at): dose or concentration left out as unconfirmed
# Details: ProbeSet 11732370_a_at; LIST D
compound,measurement,value
Nc1ncn([C@@H]2O[C@H](CO)[C@@H](O)[C@H]2O)c(=O)n1 [azacitidine],"Fold change vs veh, CUX1",0.72
